“Also recorded” adds a separate entry of the source. Where two headings read alike, the source gives them in different places.
Legend:
[1] = test system: oral mucositis induced in hamsters by acute radiation (40 Gy to left buccal cheek pouch); test: ACT-02 (Example 1): acute radiation model of oral mucositis in hamsters, mucositis scoring; type: in vivo, Syrian Golden Hamsters; design: peak mucositis score (mean daily score): scale not given here
Source text: The objective of this study is to evaluate the effect of M40403, administered by either ip or topical routes, with 2 different schedules, on the frequency, severity and duration of oral mucositis induced in hamsters by acute radiation.
The acute radiation model in hamsters, developed by the Principal Investigator, has proven to be an accurate, efficient and cost-effective technique to provide a preliminary evaluation of anti-mucositis compounds (9). The course of mucositis in this model is well defined and results in peak scores approximately 14-16 Days following radiation. The acute model has little systemic toxicity, resulting in few hamster deaths, thus permitting the use of smaller groups (N=7-8) for initial efficacy studies. It has also been used to study specific mechanistic elements in the pathogenesis of mucositis. Molecules that show efficacy in the acute radiation model may be further evaluated in the more complex models of fractionated radiation, chemotherapy, or concomitant therapy.
In this study, an acute radiation dose of 40 Gy on day 0 was administered locally to the cheek pouch. Clinically significant mucositis was observed on days 12 through 28.
Forty-eight male Syrian Golden Hamsters were divided randomly into 6 groups of 8 animals and given an acute radiation dose of 40 Gy directed to their left buccal cheek pouch. This was accomplished by anesthetizing the animals and everting the left buccal pouch, while protecting the rest of the animal with a lead shield. Test materials were given topically or by ip injection twice daily as detailed in Table 1. Mucositis was evaluated clinically starting on Day 6, and continued on alternate days until day 28.
The grade of mucositis was scored, beginning on day 6, and for every second day thereafter, through and including day 28 (for scoring scheme, see Table 2 and FIG. 2). The effect on mucositis of each drug treatment compared to ip vehicle-treated controls was assessed according to the following parameters:
The difference in the number of days hamsters in each group have ulcerative (score≧3) mucositis.
On each evaluation day, the number of animals with a blinded mucositis score of ≧3 in each drug treatment group was compared to the vehicle-treated control group. Differences were compared on a cumulative basis and statistical significance was determined by chi-square analysis. Efficacy, in this analysis, is defined as a significant reduction in the number of days that a group of animals had ulcerations (scores ≧3) when compared to the control group.
For each evaluation day the scores of the control group were compared to those of the treated groups using non-parametric rank sum analysis. Treatment success was considered as a statistically significant lowering of scores in the treated group on 2 or more days from day 6 to day 28.
(§1) All forty-eight (48) male Syrian Golden Hamsters were given an acute radiation dose of 40 Gy directed to their left buccal cheek pouch. This was accomplished by anesthetizing the animals and everting the left buccal pouch, while protecting the rest of the animal with a lead shield. Test materials were given either topically or by ip injection twice daily as detailed in Table 1. Mucositis was evaluated clinically starting on day 6, and continuing on alternate days until day 28. The study timeline is depicted in FIG. 1. Dose levels were determined based on the results of a previous acute toxicity study (data not shown), and the levels shown in Table 1.
Mucositis was induced using a standardized acute radiation protocol. A single dose of radiation (40 Gy/dose) was administered to all animals on day 0. Radiation was generated with a 250 kilovolt potential (15-ma) source at a focal distance of 50 cm, hardened with a 0.35 mm Cu filtration system. Irradiation targeted the left buccal pouch mucosa at a rate of 3.2 Gy/minute. Prior to irradiation, animals were anesthetized with an intra-peritoneal injection of Ketamine (160 mg/kg) and Xylazine (8 mg/kg). […]

[2] = type: in vivo; conditions: for Survival (animal recorded dead in weight table): first study; for survival status noted in Animal Weights table: second study, group 3
Source text: All animals were weighed daily and their survival recorded, in order to assess possible differences in animal weight among treatment groups as an indication for mucositis severity and/or possible toxicity resulting from the treatments.
as §1
Male LVG Syrian Golden Hamsters (Charles River Laboratories), aged 5 to 6 weeks, with average body weight of 84.1 g at study commencement, were used. Animals were individually numbered using an ear punch and housed in small groups of approximately 8 animals per cage. Animals were acclimatized prior to study commencement. During this period of 2 days, the animals were observed daily in order to reject animals that presented in poor condition.
The significance of these differences was evaluated by calculating the mean area under the curve for the percentage weight gain for each animal and comparing the groups using a OneWay ANOVA test. There was a significant difference between the control group and group 3 treated by ip injection with M40403 twice daily (30 mg/kg) on days −1 to 15 (P<0.001). There was also a significant difference between the control group and the group treated by ip injection with M40403 twice daily at 30 mg/kg/dose from day −1 to day 3 (P=0.018). No other significant differences were seen. […] Many of the groups with a significant reduction in weight gain are the same groups in which animal deaths were observed.

[3] = test system: animal model of rheumatoid arthritis; conditions: rat, in vivo; cited from earlier work
[4] = test system: animal models of inflammation; conditions: in vivo; cited from earlier work
[5] = group 2: ip 3 mg/kg bid day −1 to 15
[6] = group 3: ip 30 mg/kg bid day −1 to 15
[7] = group 4: top 3 mg/ml bid, 0.2 ml per dose, day −1 to 15
[8] = group 5: top 30 mg/ml bid, 0.2 ml per dose, day −1 to 15
[9] = group 6: ip 30 mg/kg bid day −1 to 3

What does the source list for `[Cl-].[Cl-].[Mn+2].c1cc2nc(c1)CN[C@@H]1CCCC[C@H]1NCCN[C@@H]1CCCC[C@H]1NC2` [M40403]?
Chi Sq v control, days with mucositis score >=3 [1, 5]: 0.3440; Days <3 (animal days with a mucositis score below 3) [1, 5]: 126; Days >=3 (animal days with a mucositis score of 3 or more) [1, 5]: 66; day of peak mucositis score [1, 5]: 18 days; peak mucositis score (mean daily score) [1, 5]: 2.8; progression of mucositis severity compared with control group [1, 5]: very similar to that observed in the control group; Chi Sq v control, days with mucositis score >=3 [1, 6]: 0.9890; Days <3 (animal days with a mucositis score below 3) [1, 6]: 96; Days >=3 (animal days with a mucositis score of 3 or more) [1, 6]: 56; day of peak mucositis score [1, 6]: 18 days; peak mucositis score (mean daily score) [1, 6]: 3.0; progression of mucositis severity compared with control group [1, 6]: indistinguishable from that observed in groups 1 and 2; progression of mucositis severity compared with control group ([1]; group 4: top 3 mg/ml bid day −1 to 15): closely paralleled those in the control group; Chi Sq v control, days with mucositis score >=3 [1, 7]: 1.6760; Days <3 (animal days with a mucositis score below 3) [1, 7]: 119; Days >=3 (animal days with a mucositis score of 3 or more) [1, 7]: 73; progression of mucositis severity compared with control group ([1]; group 5: top 30 mg/ml bid day −1 to 15): showed a reduction of mucositis severity on day 10; also recorded: only slightly less than those in the control group; Chi Sq v control, days with mucositis score >=3 [1, 8]: 0.136; Days <3 (animal days with a mucositis score below 3) [1, 8]: 128; Days >=3 (animal days with a mucositis score of 3 or more) [1, 8]: 64; Chi Sq v control, days with mucositis score >=3 [1, 9]: 7.83; Days <3 (animal days with a mucositis score below 3) [1, 9]: 120; Days >=3 (animal days with a mucositis score of 3 or more) [1, 9]: 24; day of peak mucositis score [1, 9]: 14 days; peak mucositis score (mean daily score) [1, 9]: 3.0; progression of mucositis severity compared with control group ([1]; group 6: ip 30 mg/kg bid day −1 to 3, from day 16 to day 28): decreased much more rapidly than the control group; effect of topical dosing on weight and mucositis severity ([1]; topical dosing, 3 or 30 mg/ml bid day −1 to 15, formulation used here): did not appear to have any effect on either weight or mucositis severity; Survival (animal recorded dead in weight table) ([2]; Group 2, day 0): dead; Survival (animal recorded dead in weight table) ([2]; Group 5, day 0): dead; Survival (animal recorded dead in weight table) ([2]; Group 6, day 0): dead; deaths during the study ([2]; group 3: ip 30 mg/kg bid day −1 to 15, hamster 19, after extended failure to gain weight): died on day 12; deaths during the study ([2]; group 6: ip 30 mg/kg bid day −1 to 3, appeared to be anesthesia overdose): two; average weight gain, % of starting weight by day 28 ([2]; hamster, in vivo, ip, 3 mg/kg): 66.0%; weight gain during dosing ([2]; hamster, in vivo, ip, 30 mg/kg): general lack of weight gain during dosing; toxicity based on mortality and body weight ([2]; ip injections twice daily at 30 mg/kg): appear to show some toxicity; survival status noted in Animal Weights table ([2]; animal 19, day 12): dead; survival status noted in Animal Weights table ([2]; animal 23, day 0): dead; efficacy in an animal model of rheumatoid arthritis [3]: effective; efficacy in animal models of inflammation [4]: effective
